Results taken from patent US20230212517A1, “METHODS FOR GENERATING HEMATOPOIETIC STEM CELLS” (The Brigham and Women's Hospital, Inc., priority 2018, published 2023).
Entries after “also recorded” stand apart in the source; their conditions may differ.

What was measured:
[1] = system: spleen-sorted Cd3+ T cells (donor); test: PCR assay for TCR-β rearrangement in donor T cells of primary transplant; type: in vivo, mouse; settings: primary transplant of treated E11.5 AGM; Mac1+ myeloid cells negative control
Protocol: (§1) Pulsating blood vessels like conditions were stimulated in vitro using FLEXCELL FX-4000 cell stretching bioreactor machine. To analyze roles of pharmacological targets in regulating the endothelial-to-HSC transition, mouse embryo-derived AGM or whole mouse embryo were exposed ex vivo with biomechanical stretching, chemicals, or drugs. Next, hematopoietic colony formation assays were performed by incubating mouse AGM-derived cells in StemCell M3434 media for seven days. Serial transplantation of AGM-derived HSCs in lethally irradiated SJL mice were performed. The stem cell frequency upon biomechanical stretching was analyzed using a limiting dilution assay. To characterize properties of AGM-HSC-derived blood cells in primary transplants, percentage chimerism and reconstitution was measured using FACS, globin transcripts were analyzed using quantitative reverse transcriptase-PCR, myeloperoxidase amount was measured using PICOKINE ELISA kit, TCR-β rearrangement was analyzed using PCR for TCR-β locus, pre-immune IG detection was analyzed using Thermo-Fisher Mouse Ig Isotyping kit, and delayed-type hypersensitivity was analyzed by injecting sheep RBC (Rockland Immunochemicals) in the footpad of pre-sensitized mice.
T cells (Cd45.2^+, Cd3^+) and myeloid cells (Cd45.2^+, Mac1^+) were FACS sorted from the splenocytes of 16 week-primary transplanted mice. […]

[2] = system: bone marrow-derived Gr1+Mac1+ sorted (donor) neutrophils; test: ELISA quantification of myeloperoxidase (MPO) in donor neutrophils of primary transplant; type: in vivo, mouse; settings: overnight culture; primary transplant of treated E11.5 AGM
Protocol: as §1, with “mice. […]” for “mice.”

Dnmt3a = Dnmt3a protein level in nuclear fractions of E11.5 AGM cells (EPIQUIK assay kit); type: cell-based, mouse; settings: nuclear fractions of treated E11.5 AGM cells
Protocol: (§2) RNA-sequencing analyses were performed to measure gene expression patterns in mouse AGM treated with cyclic strain or pharmacological modulators. Using computational algorithms, hierarchical clustering was performed of differentially expressed genes as well as measured their overrepresented biological processes and pathways. Gene expression clusters of differentially expressed genes were analyzed and their mean expression level across cell populations compared. Next, Venn comparison of up- and down-genes was constructed to analyze candidate(s) important for cyclic strain- or pharmacological modulator(s)-mediated the endothelial-to-HSC transition. Furthermore, Dnmt3b and Dnmt3a protein expressions were analyzed in nuclear fractions of mouse AGM cells using EPIQUIK methyltransferase assay kits. Data are presented as mean±s.d. unless otherwise noted. Statistical analyses were performed by paired or un-paired Student's t-tests. Significance was set at P<0.05.
(§3) Nuclear extracts from AGM explants were harvested using an EPIQUIK Nuclear Extraction Kit (Epigentek Group Inc.). Dnmt3b and Dnmt3a protein levels were analyzed using a colorimetric EPIQUIK methyltransferase Assay Kit (Epigentek Group Inc.), according to the manufacturer's instructions. Concentration of Dnmt3b and Dnmt3a is relative to 1 μg of nuclear extract proteins.

E11.5 AGM cells = test: Hematopoietic colony formation unit (CFU) and FACS assays on E11.5 AGM cells; type: cell-based, mouse; settings: substance alone vs. control
Protocol: as §1
E11.5 AGM were harvested from C57BL6/J Cd45.2 mouse embryos, and a single cell suspension of a three-embryo equivalent of cells was seeded on each well of a BioFlex six-well culture plate (FlexCell). We cultured cells overnight with the application of cyclic strain (Flexcell® FX4000™ Tension System) and/or treatment with chemical modulators (25-50 μM Yoda1, 1 μM Nanaomycin, 100 μM GdCl3, 1 uM GsMTx4, 5-20 μM 4αPDD, 10 uM GSK205). Next, harvested cells were used to perform transplant, fluorescence-activated cell sorting (FACS) analysis, and colony-forming unit (CFU) assays.
E11.5 mouse embryos were harvested from the uterus of the time-mated pregnant female, into sterile glass vials containing FBS, 1 mM glucose, 1% Penicillin-Streptomycin, and/or the selected chemical modulator (25-50 μM Yoda1, 1 μM Nanaomycin, 5-20 μM 4αPDD, or 10 uM GSK205). We placed glass vials in the ex vivo incubator (BTC Engineering, Cambridge, UK) consisting of a roller apparatus (rotating ˜30 rpm), constant gas supply (21% O2, 5% CO2, balance N2) and constant temperature at 37° C. After 24 hours, AGM were harvested to analyze the formation of hematopoietic cells by FACS and CFU assays.
For CFU assays, cells from AGM explant or ex vivo were plated in METHOCULT GF M3434 media (StemCell Technologies). Seven days after seeding, we analyzed their capacity to make granulocyte, erythroid, macrophage, megakaryocyte (GEMM), granulocyte macrophage (GM), granulocyte (G), macrophage (M), and erythroid (E) colonies.
AGM cells from explants and ex vivo were stained with Sca1-Pacific-Blue (E13-161.7, Biolegend) and Flk1-APC-Cy7 (Avas 12α1, BD). Blood from transplanted mice was stained with the following antibody cocktail: Cd45.2-Pacific-Blue (104, Biolegend), Cd45.1-FITC (A20, Biolegend), Cd3-PE (145-2C11, Biolegend), Cd8-PE (53-6.7, Biolegend), Mac1-APC (M1/70, Biolegend), Gr1-APC (108412, Biolegend), Cd19-APC-CY7 (6D5, Biolegend), B220-APC-CY7 (RA3-6B2, Biolegend).

Dnmt3b = Dnmt3b protein level in nuclear fractions of E11.5 AGM cells (EPIQUIK assay kit); type: cell-based, mouse; settings: nuclear fractions of treated E11.5 AGM cells
Protocol: as §2, §3

## Clc1cccc(Cl)c1CSc1nnc(-c2cnccn2)s1 [Yoda1, 2-[5-[[(2,6-Dichlorophenyl)methyl]thio]-1,3,4-thiadiazol-2-yl]-pyrazine]
[1]
  T-cell receptor β (TCRβ) locus rearrangement in donor T-cells: display T-cell receptor β (TCR β) rearrangement
[2]
  myeloperoxidase (MPO) level of donor neutrophils: reconstitute to functional myeloid cells displaying sufficient MPO levels
Dnmt3a
  Dnmt3a protein expression level: not Dnmt3a; also recorded: without impacting the expression of Dnmt3a
E11.5 AGM cells
  hematopoietic colony formation (endothelial-to-hematopoietic transition): stimulates the endothelial-to-hematopoietic transition
Dnmt3b
  Dnmt3b protein expression level: specifically stimulates Dnmt3b protein expression levels
